The values that follow come from PubChem BioAssay (NCI).

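1) Cells in 96-well plates. 2) Compound, 48 h, 5 concentrations. 3) Linear interpolation between surrounding doses. 4) Unreached endpoint = highest concentration. Abbreviation: GI50, concentration required for 50% inhibition of growth. Definition used: TGI = concentration required for complete inhibition of growth.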

Test in all cases: NCI tumour cell line growth inhibition, 48 h
The subject of assay [1] is OVCAR-8 ovarian.
The subject of assay [2] is UO-31 renal.
The test system of assay [3] is NCI/ADR-RES ovarian.
Assay [4] relates to SK-MEL-2 melanoma.
The subject of assay [5] is EKVX NSCLC.
Assay [6] has as its system MCF7 breast.
Assay [7] deals with NCI-H460 lung.
In assay [8] the test system is UACC-257 melanoma.

For the compound `CC1(C)COCN1COC1CCCCC1`, the TGI in assay [1], in assay [2], in assay [3], in assay [4], in assay [5] and in assay [6] was more than 100 µM each time. In addition, the TGI in assay [7] and in assay [8] was more than 100 µM throughout.
Regarding `O=C1C(Cl)=C(Oc2ccc([N+](=O)[O-])cc2)C(=O)c2c(O)ccc(O)c21`, the TGI in assay [1], in assay [2], in assay [3], in assay [5], in assay [6] and in assay [7] was more than 100 µM in each case. In assay [8], this compound had a TGI of more than 100 µM.
For `N#Cc1ccccc1NC(=O)/C(=N\NC(=O)c1ccncc1)C(c1cnc2ccc([N+](=O)[O-])cc2n1)[N+](=O)[O-]` (stereo not given), the TGI in assay [1], in assay [2], in assay [3], in assay [4], in assay [5] and in assay [6] was more than 100 µM throughout. The TGI in assay [7] and in assay [8] was more than 100 µM each time.
As for `Nc1ccccc1/C=C\c1ccccc1`, the TGI in assay [1], in assay [2], in assay [3], in assay [5], in assay [6] and in assay [7] was more than 100 µM in each case. This compound showed a TGI in assay [8] of more than 100 µM.
`CN(NC(=O)CC(=O)NN(C)C(=S)c1ccccc1)C(=S)c1ccccc1`: the GI50 in assay [1] is more than 66.7 µM; in assay [2] it was 14.6 µM; in assay [3] it was 55.3 µM; in assay [4], 8.77 µM; in assay [6] it was less than 0.01 µM; in assay [7] it was 0.0843 µM. For the same compound, the TGI in assay [1] is more than 100 µM; in assay [2] it was more than 89.6 µM; in assay [3], more than 100 µM; in assay [4], more than 100 µM; in assay [5] it was more than 100 µM; in assay [6], more than 100 µM. The TGI in assay [7] is more than 100 µM.
As for `C[C@@H]1O[C@@H](O[C@@H]2[C@@H](O)[C@H](OCCc3ccc(O)c(O)c3)O[C@H](COC(=O)/C=C/c3ccc(O)c(O)c3)[C@H]2O)[C@H](O)[C@H](O)[C@H]1O`, the GI50 in assay [2] was more than 100 µM; in assay [4] it was more than 100 µM; in assay [5], 36.3 µM; in assay [7], more than 100 µM; in assay [8], 62.9 µM. Further, the TGI in assay [2], in assay [4], in assay [5], in assay [7] and in assay [8] was more than 100 µM each time.
Take `COc1ccccc1C1=C2C(=O)N(C)C(c3ccccc3OC)=C2C(=O)N1C`: the TGI in assay [1], in assay [2], in assay [3], in assay [5], in assay [6] and in assay [7] was more than 100 µM each time. In addition, the TGI in assay [8] was more than 100 µM.
Regarding `Nc1nc(Nc2ccc3c(c2)CC[C@@H](N2CCCC2)CC3)nn1-c1cc2c(nn1)-c1ccccc1CCC2`, the GI50 was 0.936 µM in assay [2]; 1.93 µM in assay [4]; 1.68 µM in assay [5]; 1.31 µM in assay [7]; 1.89 µM in assay [8]. In addition, the TGI in assay [2] is 2.19 µM; in assay [4], 3.89 µM; in assay [5], 3.29 µM; in assay [7] it was 2.82 µM; in assay [8], 3.66 µM.
As for `CCCCCNC(=O)[C@@H]1CCCN2C(=O)CC[C@H](NC(=O)[C@H](Cc3ccc(OP(=O)(O)O)cc3)NC(C)=O)C(=O)N12`, the GI50 in assay [1], in assay [2], in assay [3], in assay [4], in assay [6] and in assay [7] was more than 25 µM each time. In assay [8], the GI50 was more than 25 µM. Further, the TGI in assay [1], in assay [2], in assay [3], in assay [4], in assay [6] and in assay [7] was more than 25 µM in each case. The same compound had a TGI in assay [8] of more than 25 µM.
As to `O=C(/C=C/C=C/c1ccccc1)CCc1ccccc1`, the TGI in assay [1], in assay [2], in assay [3], in assay [4], in assay [5] and in assay [6] was more than 100 µM throughout. For the same compound, in assay [8], the TGI was more than 100 µM.
`Fc1ccc(Oc2nccc(-c3c(-c4ccc(F)cc4)ncn3C3CCNCC3)n2)cc1`: the GI50 in assay [1] was more than 25 µM; in assay [2], 10.9 µM; in assay [3], more than 25 µM; in assay [4], more than 25 µM; in assay [5], more than 25 µM; in assay [6], more than 25 µM. For the same compound, the GI50 in assay [7] is more than 25 µM. Also, the TGI in assay [1], in assay [2], in assay [3], in assay [4], in assay [5] and in assay [6] was more than 25 µM each time. For the same compound, the TGI in assay [7] is more than 25 µM.
For the compound `O=C1C(=Cc2ccco2)C(=O)C2CCCCC12` (stereo not given), the TGI in assay [1], in assay [3], in assay [4], in assay [5], in assay [6] and in assay [7] was more than 100 µM throughout. The TGI in assay [8] was more than 100 µM.
Turning to `CC(=O)Nc1nc(SCc2ccccc2)c2ncn(C(C)=O)c2n1`, the GI50 was 76.5 µM in assay [1]; 43.5 µM in assay [2]; 99.3 µM in assay [3]; 71.6 µM in assay [5]; 91.8 µM in assay [6]; more than 100 µM in assay [7]. For the same compound, the GI50 in assay [8] is more than 100 µM. The TGI in assay [1], in assay [2], in assay [3], in assay [5], in assay [6] and in assay [7] was more than 100 µM each time. The compound further registered a TGI in assay [8] of more than 100 µM.
Regarding `FC(F)(F)c1cccc(COCCN2CCN(Cc3cccc(C(F)(F)F)c3)CC2)c1`, the TGI in assay [1] worked out at 41.2 µM; in assay [2] it was 24.9 µM; in assay [3], 39.1 µM; in assay [5], 23.4 µM; in assay [6], 31.7 µM; in assay [7], 34.7 µM. Besides, in assay [8], the TGI stood at 35.5 µM.
`CCC1=C[C@@H]2CN(C1)Cc1c([nH]c3ccccc13)[C@@](C(=O)OC)(c1cc3c(cc1OC)N(C=O)[C@H]1[C@@](O)(C(=O)OC)[C@H](OC(C)=O)[C@]4(CC)[C@@H]5C[C@@H]5CN5CC[C@]31[C@@H]54)C2`: the GI50 in assay [1] was 0.00268 µM; in assay [2], 0.173 µM; in assay [3] it was 0.632 µM; in assay [4], less than 0.000625 µM; in assay [6], less than 0.000625 µM; in assay [7] it was 0.00135 µM. For the same compound, the GI50 in assay [8] was more than 6.25 µM. Further, the TGI in assay [1], in assay [2], in assay [3], in assay [4], in assay [6] and in assay [7] was more than 6.25 µM in each case. For the same compound, in assay [8], the TGI was more than 6.25 µM.
With `O=C1CCCCCCCC/C=C/CCC(c2ccco2)O1` (stereo not given), the GI50 is 88.1 µM in assay [1]; more than 100 µM in assay [3]; more than 100 µM in assay [4]; more than 100 µM in assay [5]; 15.8 µM in assay [6]; more than 100 µM in assay [7]. In addition, the GI50 in assay [8] was more than 100 µM. Also, the TGI in assay [1], in assay [3], in assay [4], in assay [5], in assay [6] and in assay [7] was more than 100 µM in each case. The TGI in assay [8] is more than 100 µM.
For `COc1ccc2c(c1)nc(N)c1c3cc(OC)c(OC)cc3cn21`, the GI50 in assay [1] is 0.123 µM; in assay [2], 2.51 µM; in assay [4], 2.13 µM; in assay [5] it was 1.81 µM; in assay [6], 0.148 µM; in assay [7], 0.0606 µM. The GI50 in assay [8] is 11.4 µM. Further, the TGI in assay [1] came to 13.6 µM; in assay [2], 20.5 µM; in assay [4] it was 24.1 µM; in assay [5], 22 µM; in assay [6], 13.7 µM; in assay [7], 11 µM. In assay [8], this compound returned a TGI of 27.2 µM.
Consider `C[C@]12CC[C@H](O)CC1=CC[C@@H]1C2CC[C@]2(C)c3nn(-c4ccc(F)cc4)nc3CC12` (stereo not given in full), for which the TGI in assay [1], in assay [2], in assay [5], in assay [6], in assay [7] and in assay [8] was more than 100 µM each time.
`COC(=O)COc1ccc(/C=C2\N=C(c3ccccc3)N(c3cc(C(F)(F)F)ccc3Cl)C2=O)cc1`: the GI50 in assay [1] was 40.4 µM; in assay [2], 27.1 µM; in assay [3], 52.6 µM; in assay [4], 83.5 µM; in assay [5], more than 100 µM; in assay [6], 59.8 µM. In addition, the GI50 in assay [7] is more than 100 µM. In addition, the TGI in assay [1], in assay [2], in assay [3], in assay [4], in assay [5] and in assay [6] was more than 100 µM in each case. Also, the TGI in assay [7] was more than 100 µM.
